# According to patent publication US20260355196A1, “INHIBITORS AND DEGRADERS OF PIP4K PROTEIN” (Larkspur Biosciences, Inc., priority 2023, published 2026):
# Target: T1, PIP4K2C (Homo sapiens, UniProt Q8TBX8)
# T1 sequence (Q8TBX8 1-421): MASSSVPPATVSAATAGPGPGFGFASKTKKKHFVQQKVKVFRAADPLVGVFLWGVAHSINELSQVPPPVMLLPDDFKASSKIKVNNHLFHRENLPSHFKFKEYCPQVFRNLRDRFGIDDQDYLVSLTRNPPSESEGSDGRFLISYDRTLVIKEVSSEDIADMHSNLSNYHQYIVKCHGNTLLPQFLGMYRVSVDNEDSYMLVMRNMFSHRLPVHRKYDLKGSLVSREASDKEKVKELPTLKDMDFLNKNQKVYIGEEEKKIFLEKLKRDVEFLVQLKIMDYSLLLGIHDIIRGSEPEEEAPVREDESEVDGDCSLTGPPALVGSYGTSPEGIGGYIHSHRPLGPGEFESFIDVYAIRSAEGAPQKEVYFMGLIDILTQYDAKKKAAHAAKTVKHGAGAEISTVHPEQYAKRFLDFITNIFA
# Experiment: HiBiT PIP4K2C degradation assay in MOLT-4 cells (endogenous PIP4K2C C-terminally tagged with HiBiT)
# Assay type: cell-based
# Set-up: untagged in primary human PBMCs and monocyte-derived dendritic cells
# Conditions: 6 hours of incubation time, rather than 24 hours; MOLT-4, top concentration 10 micromolar; read-out: HiBIT-degradation MOLT4 PIP4k2C DC50 (6 hours, marked *)
# In short: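 DC50 derived by Hill fit of luminescence from Nano-Glo HiBiT lytic detection. Cells were HiBiT knock-in MOLT-4 (C-terminal tag on endogenous PIP4K2C), exposed 6 h or 24 h at 37 C to compound, top concentration 10 micromolar, 3-fold steps, 10 points, duplicates.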
row,DC50,SMILES
1,< 500 nM,"O=C1CC[C@@H](Nc2ccc(C3CCN([C@H]4CC[C@H](NC(=O)[C@H]5CC[C@H](Nc6ncc(F)c(-c7cccc(N8CCCOC8=O)n7)n6)CC5)CC4)CC3)c(F)c2)C(=O)N1 [Compound 519, (trans)-N-((trans)-4-(4-(4-((2,6-dioxopiperidin-3-yl)amino)-2-fluorophenyl)piperidin-1-yl)cyclohexyl)-4-((5-fluoro-4-(6-(2-oxo-1,3-oxazinan-3-yl)pyridin-2-yl)pyrimidin-2-yl)amino)cyclohexane-1-carboxamide]"
2,< 500 nM,"O=C1CCC(Nc2ccc(C3CCN([C@H]4CC[C@H](NC(=O)[C@H]5CC[C@H](Nc6ncc(F)c(-c7cccc(-n8ccccc8=O)n7)n6)CC5)CC4)CC3)c(F)c2)C(=O)N1 (stereo partly drawn) [Compound 520, trans-N-(trans-4-(4-(4-((2,6-dioxopiperidin-3-yl)amino)-2-fluorophenyl)piperidin-1-yl)cyclohexyl)-4-((5-fluoro-4-(2-oxo-2H-[1,2′-bipyridin]-6′-yl)pyrimidin-2-yl)amino)cyclohexane-1-carboxamide]"
3,< 500 nM,"O=C1CCC(Nc2ccc(N3CCC(N4CCC(NC(=O)[C@H]5CC[C@H](Nc6ncc(F)c(-c7cccc(N8CCCCC8=O)c7)n6)CC5)CC4)CC3)c(F)c2)C(=O)N1 (stereo partly drawn) [Compound 521, trans-N-(1′-(4-((2,6-dioxopiperidin-3-yl)amino)-2-fluorophenyl)-[1,4′-bipiperidin]-4-yl)-4-((5-fluoro-4-(3-(2-oxopiperidin-1-yl)phenyl)pyrimidin-2-yl)amino)cyclohexane-1-carboxamide]"
4,< 500 nM,"O=C1CCC(Nc2ccc(N3CCC(N4CCC(NC(=O)[C@H]5CC[C@H](Nc6ncc(F)c(-c7cccc(N8CCCOC8=O)c7)n6)CC5)CC4)CC3)c(F)c2)C(=O)N1 (stereo partly drawn) [Compound 522, trans-N-(1′-(4-((2,6-dioxopiperidin-3-yl)amino)-2-fluorophenyl)-[1,4′-bipiperidin]-4-yl)-4-((5-fluoro-4-(3-(2-oxo-1,3-oxazinan-3-yl)phenyl)pyrimidin-2-yl)amino)cyclohexane-1-carboxamide]"
5,< 500 nM,"O=C1CCC(Nc2ccc(N3CCC(N4CCC(C(=O)N[C@H]5CC[C@H](Nc6ncc(F)c(-c7cccc(N8CCCCC8)c7)n6)CC5)CC4)C(F)C3)c(F)c2)C(=O)N1 (stereo partly drawn) [Compound 523, 1′-(4-((2,6-dioxopiperidin-3-yl)amino)-2-fluorophenyl)-3′-fluoro-N-((1r,4r)-4-((5-fluoro-4-(3-(piperidin-1-yl)phenyl)pyrimidin-2-yl)amino)cyclohexyl)-[1,4′-bipiperidine]-4-carboxamide]"
6,< 500 nM,"O=C1CCC(Nc2ccc(N3CCC(N4CCC(C(=O)N[C@H]5CC[C@H](Nc6ncc(F)c(-c7cccc(N8CCCCC8=O)c7)n6)CC5)CC4)C(F)C3)c(F)c2)C(=O)N1 (stereo partly drawn) [Compound 524, 1′-(4-((2,6-dioxopiperidin-3-yl)amino)-2-fluorophenyl)-3′-fluoro-N-((1r,4r)-4-((5-fluoro-4-(3-(2-oxopiperidin-1-yl)phenyl)pyrimidin-2-yl)amino)cyclohexyl)-[1,4′-bipiperidine]-4-carboxamide]"
7,< 500 nM,"O=C1CCC(Nc2ccc(N3CCC(N4CCC(C(=O)N[C@H]5CC[C@H](Nc6ncc(F)c(-c7cccc(N8CCCOC8=O)c7)n6)CC5)CC4)C(F)C3)c(F)c2)C(=O)N1 (stereo partly drawn) [Compound 525, 1′-(4-((2,6-dioxopiperidin-3-yl)amino)-2-fluorophenyl)-3′-fluoro-N-((1r,4r)-4-((5-fluoro-4-(3-(2-oxo-1,3-oxazinan-3-yl)phenyl)pyrimidin-2-yl)amino)cyclohexyl)-[1,4′-bipiperidine]-4-carboxamide]"
8,< 500 nM,"O=C1CCC(Nc2ccc(N3CCC(N4CCC(C(=O)N[C@H]5CC[C@H](Nc6ncc(F)c(-c7cccc(N8CCOCC8=O)c7)n6)CC5)CC4)C(F)C3)c(F)c2)C(=O)N1 (stereo partly drawn) [Compound 526, 1′-(4-((2,6-dioxopiperidin-3-yl)amino)-2-fluorophenyl)-3′-fluoro-N-((1r,4r)-4-((5-fluoro-4-(3-(3-oxomorpholino)phenyl)pyrimidin-2-yl)amino)cyclohexyl)-[1,4′-bipiperidine]-4-carboxamide]"
9,< 500 nM,"O=C1CCC(Nc2ccc(N3CCN([C@H]4CC[C@H](NC(=O)[C@H]5CC[C@H](Nc6ncc(F)c(-c7cccc(N8CCCCC8)c7)n6)CC5)CC4)CC3)c(F)c2)C(=O)N1 (stereo partly drawn) [Compound 527, trans-(1r,4R)—N-((1r,4R)-4-(4-(4-((2,6-dioxopiperidin-3-yl)amino)-2-fluorophenyl)piperazin-1-yl)cyclohexyl)-4-((5-fluoro-4-(3-(piperidin-1-yl)phenyl)pyrimidin-2-yl)amino)cyclohexane-1-carboxamide]"
10,< 500 nM,"O=C1CCC(Nc2ccc(N3CCN(CC4(F)CCN(C(=O)[C@H]5CC[C@H](Nc6ncc(F)c(-c7cccc(-n8ccccc8=O)c7)n6)CC5)CC4)CC3)c(F)c2)C(=O)N1 (stereo partly drawn) [Compound 528, trans-3-((3-fluoro-4-(4-((4-fluoro-1-(4-((5-fluoro-4-(3-(2-oxopyridin-1(2H)-yl)phenyl)pyrimidin-2-yl)amino)cyclohexane-1-carbonyl)piperidin-4-yl)methyl)piperazin-1-yl)phenyl)amino)piperidine-2,6-dione]"
11,< 500 nM,"O=C1CCC(Nc2ccc(N3CCN(CC4(F)CCN(C(=O)[C@H]5CC[C@H](Nc6ncc(F)c(-c7cccc(C8CC8)c7)n6)CC5)CC4)CC3)c(F)c2)C(=O)N1 (stereo partly drawn) [Compound 529, trans-3-((4-(4-((1-((1r,4r)-4-((4-(3-cyclopropylphenyl)-5-fluoropyrimidin-2-yl)amino)cyclohexane-1-carbonyl)-4-fluoropiperidin-4-yl)methyl)piperazin-1-yl)-3-fluorophenyl)amino)piperidine-2,6-dione]"
12,< 500 nM,"O=C1CCC(Nc2ccc(N3CCN(CC4(F)CCN(C(=O)[C@H]5CC[C@H](Nc6ncc(F)c(-c7cccc(N8CCOCC8=O)c7)n6)CC5)CC4)CC3)c(F)c2)C(=O)N1 (stereo partly drawn) [Compound 530, trans-3-((3-fluoro-4-(4-((4-fluoro-1-(4-((5-fluoro-4-(3-(3-oxomorpholino)phenyl)pyrimidin-2-yl)amino)cyclohexane-1-carbonyl)piperidin-4-yl)methyl)piperazin-1-yl)phenyl)amino)piperidine-2,6-dione]"
13,< 500 nM,"O=C1CCC(Nc2ccc(N3CCC(N4CCC(NC(=O)[C@H]5CC[C@H](Nc6ncc(F)c(-c7cccc(N8CCCCC8)c7)n6)CC5)CC4)CC3)c(F)c2)C(=O)N1 (stereo partly drawn) [Compound 531, trans-N-(1′-(4-((2,6-dioxopiperidin-3-yl)amino)-2-fluorophenyl)-[1,4′-bipiperidin]-4-yl)-4-((5-fluoro-4-(3-(piperidin-1-yl)phenyl)pyrimidin-2-yl)amino)cyclohexane-1-carboxamide]"
14,< 500 nM,"O=C1CCC(Nc2ccc(N3CCC(N4CCC(NC(=O)[C@H]5CC[C@H](Nc6ncc(F)c(-c7cccc(N8CCOCC8=O)c7)n6)CC5)CC4)CC3)c(F)c2)C(=O)N1 (stereo partly drawn) [Compound 532, trans-N-(1′-(4-((2,6-dioxopiperidin-3-yl)amino)-2-fluorophenyl)-[1,4′-bipiperidin]-4-yl)-4-((5-fluoro-4-(3-(3-oxomorpholino)phenyl)pyrimidin-2-yl)amino)cyclohexane-1-carboxamide]"
15,< 500 nM,"O=C1CCC(Nc2ccc(N3CCC(N4CCC(NC(=O)[C@H]5CC[C@H](Nc6ncc(F)c(-c7cccc(C8CC8)c7)n6)CC5)CC4)CC3)c(F)c2)C(=O)N1 (stereo partly drawn) [Compound 533, trans-4-((4-(3-cyclopropylphenyl)-5-fluoropyrimidin-2-yl)amino)-N-(1′-(4-((2,6-dioxopiperidin-3-yl)amino)-2-fluorophenyl)-[1,4′-bipiperidin]-4-yl)cyclohexane-1-carboxamide]"
16,< 500 nM,"Cn1nc(C2CCC(=O)NC2=O)c2ccc(C3CCN(C[C@H]4CC[C@H](C(=O)N[C@H]5CC[C@H](Nc6ncc(F)c(-c7cccc(-n8ccccc8=O)c7)n6)CC5)CC4)CC3)cc21 (stereo partly drawn) [Compound 535, trans-(1r,4R)-4-((4-(3-(2,6-dioxopiperidin-3-yl)-1-methyl-1H-indazol-6-yl)piperidin-1-yl)methyl)-N-((1r,4R)-4-((5-fluoro-4-(3-(2-oxopyridin-1 (2H)-yl)phenyl)pyrimidin-2-yl)amino)cyclohexyl)cyclohexane-1-carboxamide]"
17,< 500 nM,"O=C1CCC(Nc2ccc(N3CCN([C@H]4CC[C@H](C(=O)N[C@H]5CC[C@H](Nc6ncc(F)c(-c7cccc(N8CCOCC8=O)c7)n6)CC5)CC4)CC3)c(F)c2)C(=O)N1 (stereo partly drawn) [Compound 536, trans-4-(4-(4-((2,6-dioxopiperidin-3-yl)amino)-2-fluorophenyl)piperazin-1-yl)-N-(trans-4-((5-fluoro-4-(3-(3-oxomorpholino)phenyl)pyrimidin-2-yl)amino)cyclohexyl)cyclohexane-1-carboxamide]"
18,< 500 nM,"O=C1CCC(Nc2ccc(N3CCN([C@H]4CC[C@H](C(=O)N[C@H]5CC[C@H](Nc6ncc(F)c(-c7cccc(C(=O)N8CC[C@H](O)C8)c7)n6)CC5)CC4)CC3)c(F)c2)C(=O)N1 (stereo partly drawn) [Compound 537, trans-4-(4-(4-((2,6-dioxopiperidin-3-yl)amino)-2-fluorophenyl)piperazin-1-yl)-N-(trans-4-((5-fluoro-4-(3-((S)-3-hydroxypyrrolidine-1-carbonyl)phenyl)pyrimidin-2-yl)amino)cyclohexyl)cyclohexane-1-carboxamide]"
